Experimental data reported in patent US20110263577A1 (priority 2008, published 2011).
Where a name gives a salt, the structure may show the parent alone.

Each molecule was assayed against α7-subtype of nicotinic receptors (Rattus norvegicus, UniProt Q05941) (assay: biochemical).
Format: binding

Sequence of α7-subtype of nicotinic receptors (Q05941 23-502): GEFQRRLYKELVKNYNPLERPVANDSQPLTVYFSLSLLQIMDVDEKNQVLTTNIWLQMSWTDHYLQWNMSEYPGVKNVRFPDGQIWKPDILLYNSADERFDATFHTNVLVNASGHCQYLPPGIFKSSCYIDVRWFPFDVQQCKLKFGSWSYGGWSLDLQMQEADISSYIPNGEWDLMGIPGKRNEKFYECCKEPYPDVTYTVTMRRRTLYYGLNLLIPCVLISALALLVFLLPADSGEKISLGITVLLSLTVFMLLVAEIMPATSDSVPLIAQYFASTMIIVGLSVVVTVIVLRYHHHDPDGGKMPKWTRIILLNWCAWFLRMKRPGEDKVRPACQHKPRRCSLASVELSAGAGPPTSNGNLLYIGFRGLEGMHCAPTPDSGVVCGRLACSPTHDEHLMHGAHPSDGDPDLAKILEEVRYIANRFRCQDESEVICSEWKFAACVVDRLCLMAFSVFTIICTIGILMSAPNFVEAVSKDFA

In order of falling IC50:
1. c1ccc2c(c1)OCC(c1nnc(N3CCN4CCC3CC4)o1)O2 (stereo not drawn) [Compound 3, 4-[5-(2,3-Dihydro-benzo[1,4]dioxin-2-yl)-[1,3,4]oxadiazol-2-yl]-1,4-diaza-bicyclo[3.2.2]nonane fumaric acid salt]  1800 nM
2. c1ccc2c(c1)OC(c1nnc(N3CCN4CCC3CC4)o1)O2 [Compound 2, 4-(5-Benzo[1,3]-dioxol-2-yl-[1,3,4]oxadiazol-2-yl)-1,4-diaza-bicyclo[3.2.2]nonane fumaric acid salt]  750 nM
3. c1ccc2c(c1)CC(c1nnc(N3CCN4CCC3CC4)o1)C2 [Compound 1, 4-(5-Indan-2-yl-[1,3,4]oxadiazol-2-yl)-1,4-diaza-bicyclo[3.2.2]nonane fumaric acid salt]  610 nM
